Drawing on patent publication US20230174526A1, “BENZOTHIAZOLYL BIARYL COMPOUND, AND PREPARATION METHOD AND USE” (SHANGHAI RINGENE BIOPHARMA CO., LTD., priority 2020, published 2023), this text covers IC50, half-life and tumor regression for five compounds.

The target of one data set is T1, CYP1A2 (Homo sapiens, UniProt P05177).
T1 construct: a system of 100 µL of human liver microsomes (final concentration 0.2 mg/mL); from tissue; host or cells: human liver microsomes
T1 sequence (P05177 1-516): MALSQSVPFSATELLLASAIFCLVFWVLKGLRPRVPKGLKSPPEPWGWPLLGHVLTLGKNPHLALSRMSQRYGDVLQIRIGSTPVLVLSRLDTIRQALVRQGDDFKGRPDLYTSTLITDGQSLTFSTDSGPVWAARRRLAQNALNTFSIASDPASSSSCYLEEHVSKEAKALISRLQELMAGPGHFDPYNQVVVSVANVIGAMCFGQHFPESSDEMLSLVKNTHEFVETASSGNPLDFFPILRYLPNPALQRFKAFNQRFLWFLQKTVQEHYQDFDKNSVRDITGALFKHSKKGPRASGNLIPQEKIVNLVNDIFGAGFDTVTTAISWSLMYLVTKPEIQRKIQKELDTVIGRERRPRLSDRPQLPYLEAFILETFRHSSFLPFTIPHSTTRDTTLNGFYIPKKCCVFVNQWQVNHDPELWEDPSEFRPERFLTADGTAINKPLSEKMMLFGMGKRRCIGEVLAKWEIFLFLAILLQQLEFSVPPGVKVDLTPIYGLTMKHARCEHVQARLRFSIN
As to the kind of experiment: Direct inhibition test (DI test), CYP1A2. Type of data set: in vitro ADME. Conditions: human liver microsomes. As to the method: Direct inhibition test (DI test): direct inhibition warm incubation was performed with a system of 100 µL of human liver microsomes (final concentration 0.2 mg/mL) containing NADPH (final concentration 1 mM), 10 µM compound, positive inhibitor cocktail (ketoconazole 10 µM, quinidine 10 µM, sulfobenzyrazole 100 µM, α-naphthoflavone 10 µM, tranylcypromine 1000 µM), a negative control (BPS with 0.1% DMSO) and a mixed probe substrate (midazolam 10 µM, testosterone 100 µM, dextromethorphan 10 µM, diclofenac 20 µM, phenacetin100 µM, mephenytoin100 µM), and the reaction was terminated after a warm incubation for 20 min.The relative enzyme activity was calculated by measuring the relative amount of metabolites produced.

A short description of data set [1]: Metabolic stability assay, mouse liver microsomes. Type of data set: in vitro ADME. Conditions: mouse liver microsomes 0.5 mg/mL, 1 µM compound, read-out: Liver microsomal stability (T½ /min) Mouse. As to the method:
(§1) Metabolic stability assay: A warm incubation for metabolic stability was performed with a system of 150 µL of liver microsomes (final concentration 0.5 mg/mL) containing NADPH (final concentration 1 mM), 1 µM of the test compound and positive control midazolam or negative control atenolol, and the reaction was terminated with acetonitrile containing tinidazole at 0 min, 5 min, 10 min and 30 min, respectively. The reaction was vortexed for 10 min and centrifuged at 15000 rmp for 10 min, and 50 µL of supernatant was taken into the 96-well plate for sampling. The metabolic stability of the compound was calculated by measuring the relative reduction of the drugs.

For a further data set, the target named is T2, CYP2C8 (Homo sapiens, UniProt P10632).
T2 sequence (P10632 1-490): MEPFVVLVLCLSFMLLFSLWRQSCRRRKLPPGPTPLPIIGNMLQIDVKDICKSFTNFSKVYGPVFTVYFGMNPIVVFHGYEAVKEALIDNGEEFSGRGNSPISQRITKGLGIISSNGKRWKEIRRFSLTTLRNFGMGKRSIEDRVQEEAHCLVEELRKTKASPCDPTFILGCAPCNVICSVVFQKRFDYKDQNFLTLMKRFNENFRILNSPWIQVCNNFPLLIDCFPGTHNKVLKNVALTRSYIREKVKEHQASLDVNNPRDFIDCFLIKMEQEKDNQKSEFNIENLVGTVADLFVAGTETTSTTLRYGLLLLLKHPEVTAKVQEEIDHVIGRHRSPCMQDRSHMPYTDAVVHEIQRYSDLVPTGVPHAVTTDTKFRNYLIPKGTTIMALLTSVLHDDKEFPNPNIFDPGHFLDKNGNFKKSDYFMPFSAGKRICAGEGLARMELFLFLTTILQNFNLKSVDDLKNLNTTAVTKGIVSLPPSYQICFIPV
As to the kind of experiment: Direct inhibition test (DI test), CYP2C8. Type of data set: in vitro ADME. To be noted: human liver microsomes.

The subject of the next data set is NCI-H358 cells. In words: Proliferation test method 2 (3D, Cell Titer Glo 3D), NCI-H358. The format is cell-based. To be noted: Homo sapiens, NCI-H358, 96 h, read-out: IC50 cell proliferation inhibitory activity against NCI-H358. As to the method: (§2) Test method 2 (3D): The tumor cells in the logarithmic growth phase were diluted with culture solution to a certain concentration and inoculated on the 96-well plate on the ultra-low attachment surface, and the culture medium was 80 µL/well. Cells were incubated overnight at 37° C. in a humidity chamber. On the second day, a series of diluted test compounds (10 concentrations, 3 times dilution) were added to the plate, 20 µL/well, incubated in an incubator for 96h.The plates are removed and placed at room temperature and incubated with an equal volume of Cell Titer Glo®3D reagent for 1 h. The signal is detected by the En Vision™ plate reader. […] A four-parameter nonlinear regression curve was fitted to the percent inhibition for each concentration of the compound and the IC50 was calculated.

Data set [2] in a line: Metabolic stability assay, human liver microsomes. Type of data set: in vitro ADME. Conditions: human liver microsomes 0.5 mg/mL, 1 µM compound, read-out: Liver microsomal stability (T½ /min) human. As to the method: as §1
A further data set concerns MiaPaca-2 cells. In words: Proliferation test method 2 (3D, Cell Titer Glo 3D), MiaPaca-2. Type of data set: cell-based. To be noted: Homo sapiens, MIA PaCa-2, 96 h, read-out: IC50 cell proliferation inhibitory activity against MiaPaca-2. As to the method:
as §2

Data set [3] relates to transplanted tumor of MiaPaca-2, NCI-H358 tumor cells. As to the kind of experiment: Growth inhibition of transplanted tumor in nude mice. The format is in vivo. Conditions: 10 mg/kg orally, after two weeks of administration. As to the method:
The tumor tissues in the peak growth period were cut into 1.5 mm^3 and inoculated into the right axillary subcutis of nude mice under aseptic conditions. The subcutaneous transplanted tumors of nude mice were measured by vernier calipers for the diameter of the transplanted tumors, and the animals were randomly grouped when the average volume of the tumors reached about 130 mm^3.The example compound (injection water containing 1% Tween 80 was prepared to the desired concentration and then left to be used) was administered orally at the given dose daily for three weeks, and the solvent control group was given an equal amount of solvent. The transplanted tumor diameter was measured twice a week throughout the experiment, and the mice were weighed at the same time.The tumor volume (TV) was calculated by the formula: TV = ½×a×b^2, where a and b are the length and width, respectively.

`C=CC(=O)N1C[C@@H]2C(=O)N(C)c3cnc4c(F)c(-c5ccc(F)c6sc(N)nc56)c(Cl)cc4c3N2C[C@H]1C` (single isomer, unassigned) [Example 17-1] returned an IC50 against CYP1A2 above 10 µM. In data set [1], the half-life at 1 µM is above 30 min. The IC50 at 20 min against CYP2C8 was above 10 µM.

As for `C=CC(=O)N1CCN(c2nc(OC[C@@H]3CCCN3C)nc3c(F)c(-c4ccc(F)c5sc(N)nc45)c(Cl)cc23)C[C@H]1C` [Example 11, 1-((2R)-4-(7-(2-Amino-7-Fluorobenzo [d] Thiazol-4-yl) -6-Chloro-8-Fluoro-2-(((S)-1-Methylpyrrolidin-2-yl) Methoxy) Quinazolin-4-yl)-2-Methylpiperazin-1-yl) Prop-2-En-1-One], the values for the IC50 with NCI-H358 cells, with MiaPaca-2 cells and at CYP1A2 were below 0.2 µM, below 0.2 µM and above 10 µM, respectively. Also, the half-life at 1 µM in data set [2] was above 30 min. On CYP2C8, this compound came in with an IC50 at 20 min above 10 µM.

For `C=CC(=O)N1CCN(c2c(C#N)c(N3CC(N(C)C)C3)nc3c(F)c(-c4ccc(F)c5sc(N)nc45)c(Cl)cc23)CC1` [Example 21, 4-(4-acryloyl Piperazin-1-yl)-7-(2-Amino-7-Fluorobenzo [d] Thiazol-4-yl) -6-Chloro-2-(3-(Dimethylamino) Azetidine-1-yl)-8-Fluoroquinolin-3 -Cyano], at CYP1A2, the IC50 is above 10 µM. This compound also showed an IC50 at 20 min at CYP2C8 above 10 µM.

As to `C=CC(=O)N1CCN(c2c(C#N)cnc3c(F)c(-c4ccc(F)c5sc(N)nc45)c(Cl)cc23)CC1` [Example 8], the IC50 with NCI-H358 cells is below 0.2 µM; in the data set on MiaPaca-2 cells, below 0.2 µM; against CYP1A2, above 10 µM. In data set [3], the tumor regression result is “tumor regression was achieved”. Moreover, in data set [1], the half-life at 1 µM is above 30 min. Also, on CYP2C8, the IC50 at 20 min was above 10 µM.

For the compound `C=CC(=O)N1CCN(c2c(C#N)c(OC[C@@H]3CCCN3C)nc3c(F)c(-c4ccc(F)c5sc(N)nc45)c(Cl)cc23)CC1` [Example 3, 4-(4-Piperazinylacryloylpiperazin-1-yl)-7-(2-Amino-7-Fluorobenzo[d]Thiazol-4-yl)-6-Chloro-8-Fluoro-2-(((S)-1-Methylpyrrolidin-2-Yl)Methoxy)Quinoline-3-Cyano], the half-life at 1 µM in data set [2] is above 30 min. On CYP1A2, the IC50 was above 10 µM. The IC50 at 20 min on CYP2C8 is above 10 µM.
